Measurements reported in US20220175766A1, “COMPOSITIONS AND METHODS OF TREATMENT” (GB004, Inc., priority 2019, published 2022).
≈ marks a conversion by molar mass, not a printed value.

Key:
[1] = test system: hypoxia inducible factor (HIF)-inducible gene expression; experiment: Phase 1a multiple ascending dose study: HIF-inducible gene expression in colonic mucosal biopsy samples; assay type: in vivo, human
Protocol: Colonic mucosal biopsy samples were also assessed for hypoxia inducible factor (HIF)-inducible gene expression. For Tier 1 association tests, two significant gene were detected (HMOX1, CA9).

[2] = Compound 1 pH-solubility at 22° C.; assay type: physicochemical; conditions: for solubility: aqueous buffer, thermodynamic from solid
Description: The solubility of Compound 1 at various pH's was investigated.

[3] = Phase 1a single ascending dose study (oral solution): safety and tolerability; assay type: in vivo, human; conditions: all doses evaluated (20-240 mg) in 50 mL or 100 mL vehicle
Description: The primary objective of the study was to assess the safety and tolerability of ascending dose levels of Compound 1 after single oral dose administration. The safety endpoints included AE incidence, clinically significant changes in vital signs, ECG parameters, clinical laboratory tests and physical examination.
All subjects underwent a complete physical examination and their medical history and demographic information collected. The body systems evaluated included general appearance, skin, lymphatic, head and neck, EENT (eyes, ears, nose, and throat), chest and lungs, cardiovascular, abdomen, extremities, musculoskeletal and neuromuscular. Vital signs were measured. Blood pressure, pulse, respiratory rate and oral temperature; were taken. Blood and urine samples were collected at screening, pre-baseline, baseline, during the treatment period, and Day 8 follow-up visit; the following clinical laboratory evaluations were conducted. […]

pKa of Compound 1 = assay type: physicochemical; conditions: two basic groups
Description: The pKa value expresses the strength of acids and base, i.e. the tendency for an acid to lose a proton or a base to accept a proton (Bronsted J. N. Rec. trav. Chim. (47), 718, 1923) and the protonation and deprotonation of the basic groups in the compound has a marked effect upon the solubility of Compound 1 in aqueous media. Consequently, the solubility of Compound 1 is highly dependent upon pH.

In the case of CC(C)(C)OC(=O)N1CCN(Cc2ccn(Cc3ccc(Cl)cc3)c(=O)c2O)CC1 [Compound 1, tert-butyl 4-((1-(4-chlorobenzyl)-3-hydroxy-2-oxo-1,2-dihydropyridin-4-yl)methyl)piperazine-1-carboxylate], the Significant genes detected ([1]; Tier 1 association tests) is reported as “HMOX1, CA9”, the Significant genes detected ([1]; Tier 2 analysis) is reported as “NDRG1, LCN2, BNIP3, TFF3, AKR1C3, BIRC3, TMEM45A and HILPDA” and the solubility ([2]; TRIS buffer, pH 8 (TRIS 25 mM, l = 0.1), pH 8.0, 22° C.) is reported as 0.69 µg/mL (≈ 1.59 µM). For the same molecule, the “Solubility (in words)” value ([2]; above pH 4) was “practically insoluble”, the solubility ([2]; 0.1M NaOH, pH 12.6, 22° C.) was 890 µg/mL (≈ 2050 µM) and the “Solubility (in words)” value ([2]; at pH 1) was “soluble”. The “Solubility (in words)” value ([2]; at pH 6.8) was “totally insoluble”, the solubility ([2]; citrate buffer, pH 3 (Citrate 25 mM, l = 0.1), pH 2.9, 22° C.) was 570 µg/mL (≈ 1310 µM) and the solubility ([2]; citrate buffer, pH 4 (Citrate 25 mM, l = 0.1), pH 3.9, 22° C.) was 94 µg/mL (≈ 217 µM). It also gave a solubility ([2]; citrate buffer, pH 5 (Citrate 25 mM, l = 0.1), pH 5.0, 22° C.) of 9.8 µg/mL (≈ 22.6 µM), a solubility ([2]; glycine buffer, pH 10 (Glycine 25 mM, l = 0.1), pH 9.9, 22° C.) of 9.9 µg/mL (≈ 22.8 µM) and a solubility ([2]; phosphate buffer, pH 6.5 (Phosphate 25 mM, l = 0.1), pH 6.5, 22° C.) of 1 µg/mL (≈ 2.3 µM). The Safety and tolerability [3] was “safe and well tolerated” and the pKa (pKa of Compound 1) was 6.5.
